Results: PubChem BioAssay AID1963847 (Molecular Pharmacology Branch, DTP, NCI, 2024)

Tested on: 415267-285-R-J2-PDC complex spheroid viability
Experiment: Anticancer human tumor 415267-285-R-J2-PDC patient-derived breast carcinoma cell line growth inhibition [POLQ]
Conditions: for IC50: curve of first compound; for viability, T/C: stronger effect = lower value
How it was run: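 Growth inhibition in 3D: complex spheroids (tumor PDC, HUVEC, MSC) treated with POLQ inhibitor combinations; where Cmax unknown, highest tested concentration 10 microM, except SN-38 at 1 microM.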

[1] = second compound 0.0316 µM, first compound 0.0316 µM
[2] = second compound 0.0316 µM, first compound 0.1 µM
[3] = second compound 0.0316 µM, first compound 0.316 µM
[4] = second compound 0.0316 µM, first compound 1 µM
[5] = second compound 0.0316 µM, first compound 3.16 µM
[6] = second compound 0.0316 µM, first compound 10 µM
[7] = second compound 0.1 µM, first compound 0.0316 µM
[8] = second compound 0.1 µM, first compound 0.1 µM
[9] = second compound 0.1 µM, first compound 0.316 µM
[10] = second compound 0.1 µM, first compound 1 µM
[11] = second compound 0.1 µM, first compound 3.16 µM
[12] = second compound 0.1 µM, first compound 10 µM
[13] = second compound 0.316 µM, first compound 0.0316 µM
[14] = second compound 0.316 µM, first compound 0.1 µM
[15] = second compound 0.316 µM, first compound 0.316 µM
[16] = second compound 0.316 µM, first compound 1 µM
[17] = second compound 0.316 µM, first compound 3.16 µM
[18] = second compound 0.316 µM, first compound 10 µM
[19] = second compound 1 µM, first compound 0.0316 µM
[20] = second compound 1 µM, first compound 0.1 µM
[21] = second compound 1 µM, first compound 0.316 µM
[22] = second compound 1 µM, first compound 1 µM
[23] = second compound 1 µM, first compound 3.16 µM
[24] = second compound 1 µM, first compound 10 µM
[25] = second compound 3.16 µM, first compound 0.0316 µM
[26] = second compound 3.16 µM, first compound 0.1 µM
[27] = second compound 3.16 µM, first compound 0.316 µM
[28] = second compound 3.16 µM, first compound 1 µM
[29] = second compound 3.16 µM, first compound 3.16 µM
[30] = second compound 3.16 µM, first compound 10 µM
[31] = second compound 10 µM, first compound 0.0316 µM
[32] = second compound 10 µM, first compound 0.1 µM
[33] = second compound 10 µM, first compound 0.316 µM
[34] = second compound 10 µM, first compound 1 µM
[35] = second compound 10 µM, first compound 3.16 µM
[36] = second compound 10 µM, first compound 10 µM
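Also: spheroids exposed to compounds for one week before readout.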
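For viability, T/C in this document: luminescence used as stand-in measure of viable cells; 100% = DMSO vehicle control viability.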

## CCc1cc2c(N3CCc4c(cc(Cn5ccnc5)cc4-c4cn(C)nc4C(F)(F)F)C3=O)cc(C)nc2c(OC)n1 + COC1C(OC(N)=O)C(O)C(Oc2ccc3c(O)c(NC(=O)c4ccc(O)c(CC=C(C)C)c4)c(=O)oc3c2C)OC1(C)C
Second compound 0.0316 µM
  IC50: > 10000 nM
Second compound 0.1 µM
  IC50: > 10000 nM
Second compound 0.316 µM
  IC50: > 10000 nM
Second compound 1 µM
  IC50: > 10000 nM
Second compound 3.16 µM
  IC50: > 10000 nM
Second compound 10 µM
  IC50: > 10000 nM
[1]
  viability, T/C: 75.5%
[2]
  viability, T/C: 81.8%
[3]
  viability, T/C: 84.8%
[4]
  viability, T/C: 76.1%
[5]
  viability, T/C: 76%
[6]
  viability, T/C: 64.4%
[7]
  viability, T/C: 84%
[8]
  viability, T/C: 81.9%
[9]
  viability, T/C: 80.6%
[10]
  viability, T/C: 75.6%
[11]
  viability, T/C: 72.9%
[12]
  viability, T/C: 66.8%
[13]
  viability, T/C: 93.5%
[14]
  viability, T/C: 79.9%
[15]
  viability, T/C: 74.2%
[16]
  viability, T/C: 69.5%
[17]
  viability, T/C: 83.7%
[18]
  viability, T/C: 65.9%
[19]
  viability, T/C: 94.1%
[20]
  viability, T/C: 79.6%
[21]
  viability, T/C: 68.1%
[22]
  viability, T/C: 73.9%
[23]
  viability, T/C: 73.6%
[24]
  viability, T/C: 55.5%
[25]
  viability, T/C: 92.3%
[26]
  viability, T/C: 98.6%
[27]
  viability, T/C: 73.8%
[28]
  viability, T/C: 85.3%
[29]
  viability, T/C: 80.9%
[30]
  viability, T/C: 73.5%
[31]
  viability, T/C: 90.2%
[32]
  viability, T/C: 85.9%
[33]
  viability, T/C: 88.3%
[34]
  viability, T/C: 82%
[35]
  viability, T/C: 68.5%
[36]
  viability, T/C: 59.7%

## COc1cc(C2c3cc4c(cc3C(OC3OC5COC(C)OC5C(O)C3O)C3COC(=O)C23)OCO4)cc(OC)c1O (stereo unspecified) + COC1C(OC(N)=O)C(O)C(Oc2ccc3c(O)c(NC(=O)c4ccc(O)c(CC=C(C)C)c4)c(=O)oc3c2C)OC1(C)C
Second compound 0.0316 µM
  IC50: 155 nM
Second compound 0.1 µM
  IC50: 156 nM
Second compound 0.316 µM
  IC50: 149 nM
Second compound 1 µM
  IC50: 153 nM
Second compound 3.16 µM
  IC50: 166 nM
Second compound 10 µM
  IC50: 163 nM
[1]
  viability, T/C: 88.3%
[2]
  viability, T/C: 72.4%
[3]
  viability, T/C: 13.8%
[4]
  viability, T/C: 8.42%
[5]
  viability, T/C: 5.21%
[6]
  viability, T/C: 6.94%
[7]
  viability, T/C: 97.4%
[8]
  viability, T/C: 72.1%
[9]
  viability, T/C: 14.5%
[10]
  viability, T/C: 8.54%
[11]
  viability, T/C: 5.95%
[12]
  viability, T/C: 5.76%
[13]
  viability, T/C: 97.7%
[14]
  viability, T/C: 69.6%
[15]
  viability, T/C: 12.8%
[16]
  viability, T/C: 8.42%
[17]
  viability, T/C: 5.87%
[18]
  viability, T/C: 6.37%
[19]
  viability, T/C: 98.3%
[20]
  viability, T/C: 71.6%
[21]
  viability, T/C: 13.1%
[22]
  viability, T/C: 7.07%
[23]
  viability, T/C: 6.69%
[24]
  viability, T/C: 5.99%
[25]
  viability, T/C: 87.1%
[26]
  viability, T/C: 75.9%
[27]
  viability, T/C: 17%
[28]
  viability, T/C: 8.05%
[29]
  viability, T/C: 5.46%
[30]
  viability, T/C: 6.77%
[31]
  viability, T/C: 101%
[32]
  viability, T/C: 75.6%
[33]
  viability, T/C: 15.3%
[34]
  viability, T/C: 8.14%
[35]
  viability, T/C: 6.45%
[36]
  viability, T/C: 5.77%

## CC1COCCN1c1cc(C2(S(C)(=N)=O)CC2)nc(-c2ccnc3[nH]ccc23)n1 (stereo unspecified) + Nc1ccc(C#CCN(C(=O)Cc2ncc(C(F)(F)F)cc2C(F)(F)F)c2ccc(F)cc2)nn1
Second compound 0.0316 µM
  IC50: 541 nM
Second compound 0.1 µM
  IC50: 514 nM
Second compound 0.316 µM
  IC50: 592 nM
Second compound 1 µM
  IC50: 537 nM
Second compound 3.16 µM
  IC50: 559 nM
Second compound 10 µM
  IC50: 527 nM
[1]
  viability, T/C: 106%
[2]
  viability, T/C: 113%
[3]
  viability, T/C: 81.3%
[4]
  viability, T/C: 14.2%
[5]
  viability, T/C: 5.34%
[6]
  viability, T/C: 3.83%
[7]
  viability, T/C: 94.3%
[8]
  viability, T/C: 108%
[9]
  viability, T/C: 75%
[10]
  viability, T/C: 15.4%
[11]
  viability, T/C: 5.4%
[12]
  viability, T/C: 3.91%
[13]
  viability, T/C: 104%
[14]
  viability, T/C: 101%
[15]
  viability, T/C: 92.6%
[16]
  viability, T/C: 14.3%
[17]
  viability, T/C: 5.2%
[18]
  viability, T/C: 3.58%
[19]
  viability, T/C: 104%
[20]
  viability, T/C: 95%
[21]
  viability, T/C: 81.9%
[22]
  viability, T/C: 12.5%
[23]
  viability, T/C: 6.5%
[24]
  viability, T/C: 2.93%
[25]
  viability, T/C: 102%
[26]
  viability, T/C: 104%
[27]
  viability, T/C: 87.3%
[28]
  viability, T/C: 12%
[29]
  viability, T/C: 5.15%
[30]
  viability, T/C: 4.26%
[31]
  viability, T/C: 111%
[32]
  viability, T/C: 91.2%
[33]
  viability, T/C: 80.8%
[34]
  viability, T/C: 11.4%
[35]
  viability, T/C: 5.02%
[36]
  viability, T/C: 4.34%
